Reference: ChEMBL document CHEMBL1124432, “(6R,6S)-5,8,10-trideaza-5,6,7,8-tetrahydrofolate and 6(R,6S)-5,8,10-trideaza-5,6,7,8-tetrahydropteroyl-L-ornithine as potential antifolates and antitumor agents” (J Med Chem, 1989)

Columns and labels:
L1210 = assay: Inhibitory activity against the growth of murine L1210 leukemia cells; value ranges from 20-60; type: functional, cell-based; details: Mus musculus
CCRF-CEM = assay: Inhibitory activity against the growth of CEM human leukoblast cells; value ranges from 20-60; type: functional, cell-based
[1] = Inhibitory activity against the growth of SSC15 human squamous carcinoma cells; value ranges from 20-60; type: functional
[2] = molecular target: T1, Folylpolyglutamate synthase, mitochondrial (Mus musculus) (UniProt P48760); assay: (§1) The apparent Km of compound as a substrate for partially purified mouse liver Folyl-polyglutamate synthase
T1 sequence (whole entry): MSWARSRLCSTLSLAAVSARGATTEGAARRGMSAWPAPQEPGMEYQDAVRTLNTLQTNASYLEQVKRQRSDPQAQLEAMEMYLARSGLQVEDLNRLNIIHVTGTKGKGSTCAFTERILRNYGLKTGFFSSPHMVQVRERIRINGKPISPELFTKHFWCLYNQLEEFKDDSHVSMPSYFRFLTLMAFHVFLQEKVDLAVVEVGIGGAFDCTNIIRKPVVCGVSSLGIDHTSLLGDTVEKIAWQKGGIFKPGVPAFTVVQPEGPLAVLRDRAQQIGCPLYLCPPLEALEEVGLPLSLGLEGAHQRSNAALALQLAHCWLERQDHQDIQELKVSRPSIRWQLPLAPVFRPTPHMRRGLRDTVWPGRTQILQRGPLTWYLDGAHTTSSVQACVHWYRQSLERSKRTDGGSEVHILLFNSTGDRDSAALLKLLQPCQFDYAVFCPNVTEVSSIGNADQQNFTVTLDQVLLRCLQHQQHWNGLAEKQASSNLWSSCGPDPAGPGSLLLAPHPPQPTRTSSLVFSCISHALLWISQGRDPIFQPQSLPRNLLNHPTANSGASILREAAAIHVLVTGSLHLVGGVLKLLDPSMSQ

[3] = substrate: Nc1nc(O)c2c(n1)NCC(CNc1ccc(C(=O)N[C@@H](CCC(=O)O)C(=O)O)cc1)N2; assay: as §1
[4] = substrate: Nc1nc(O)c2c(n1)CCC(CCc1ccc(C(=O)NC(CCC(=O)O)C(=O)O)cc1)C2; assay: as §1
[5] = substrate: Nc1nc(N)c2nc(CNc3ccc(C(=O)N[C@@H](CCC(=O)O)C(=O)O)cc3)cnc2n1; assay: as §1

Nc1nc(O)c2cc(CCc3ccc(C(=O)N[C@@H](CCC(=O)O)C(=O)O)cc3)cnc2n1
IC50 (L1210): 60 nM
IC50 (CCRF-CEM): 60 nM
IC50 [1]: 60 nM

NCCCC(NC(=O)c1ccc(CCC2CCc3nc(N)nc(O)c3C2)cc1)C(=O)O (configuration not stated)
Kis [2]: 10.1 µM

B1: Folylpolyglutamate synthase, mitochondrial (Mus musculus), P48760 (protein)
chain: MSWARSRLCSTLSLAAVSARGATTEGAARRGMSAWPAPQEPGMEYQDAVRTLNTLQTNASYLEQVKRQRSDPQAQLEAMEMYLARSGLQVEDLNRLNIIHVTGTKGKGSTCAFTERILRNYGLKTGFFSSPHMVQVRERIRINGKPISPELFTKHFWCLYNQLEEFKDDSHVSMPSYFRFLTLMAFHVFLQEKVDLAVVEVGIGGAFDCTNIIRKPVVCGVSSLGIDHTSLLGDTVEKIAWQKGGIFKPGVPAFTVVQPEGPLAVLRDRAQQIGCPLYLCPPLEALEEVGLPLSLGLEGAHQRSNAALALQLAHCWLERQDHQDIQELKVSRPSIRWQLPLAPVFRPTPHMRRGLRDTVWPGRTQILQRGPLTWYLDGAHTTSSVQACVHWYRQSLERSKRTDGGSEVHILLFNSTGDRDSAALLKLLQPCQFDYAVFCPNVTEVSSIGNADQQNFTVTLDQVLLRCLQHQQHWNGLAEKQASSNLWSSCGPDPAGPGSLLLAPHPPQPTRTSSLVFSCISHALLWISQGRDPIFQPQSLPRNLLNHPTANSGASILREAAAIHVLVTGSLHLVGGVLKLLDPSMSQ
Km [3]: 8 µM
Km [4]: 1.54 µM
Km [5]: 20 µM
